tested on: IUD associated uterine hemmorhage; assay: not given; conditions: systemic (oral) intake; cited from earlier work

SMILES | IUD associated uterine hemmorhage
NCCCCCC(=O)O [EACA, epsilon aminocaproic acid] | alleviated
NC[C@H]1CC[C@H](C(=O)O)CC1 [tranexamic acid] | alleviated

tested on: fibrinolytic activity; assay: Fibrinolytic inhibition, potency relative to dibromopropamidine; format: biochemical; conditions: on a molar concentration basis
Text: The numerical values are expressed as a reciprocal of the concentration of the drug producing the equivalent inhibition to the dibromopropamidine. Where no values for relative potency are listed such values have not been specifically determined.

SMILES | anti-fibrinolytic effect greater than that of dibromopropamidine [times]
N=C(N)Nc1ccc(C(=O)Oc2ccc([N+](=O)[O-])cc2)cc1 [NPG3, p-nitrophenyl-p'-guanidinobenzoate] | ~100

same assay, conditions: relative to dibromopropamidine; reciprocal of the concentration producing inhibition equivalent to dibromopropamidine

SMILES | Relative Potency
N=C(N)c1ccc(OCCCCCOc2ccc(C(=N)N)cc2Br)c(Br)c1 [Dibromopentamidine] | 3.6
N=C(N)c1ccc(OCCCCCCCCOc2ccc(C(=N)N)cc2)cc1 [Octamidine] | 2.6
N=C(N)c1ccc(OCCCCCCCOc2ccc(C(=N)N)cc2)cc1 [Heptamidine] | 1.9
N=C(N)c1ccc(OCCCOc2ccc(C(=N)N)cc2Br)c(Br)c1 [Dibromopropamidine] | 1.0
N=C(N)c1ccc(OCCCCCCOc2ccc(C(=N)N)cc2I)c(I)c1 [Diiodohexamidine] | 7.5
N=C(N)c1cccc(OCCCCCOc2cccc(C(=N)N)c2)c1 [m-Pentamidine] | 0.6
N=C(N)c1ccc(Oc2ccc(C(=N)N)cc2)cc1 [Phenamidine] | 0.2
N=C(N)c1ccc(OCCCCCOc2ccc(C(=N)N)cc2I)c(I)c1 [Diiodopentamidine] | 6.8
N=C(N)c1ccc(OCCCCCCOc2ccc(C(=N)N)cc2Cl)c(Cl)c1 [Dichlorohexamidine] | 1.9
N=C(N)c1ccc(OCCCCCOc2ccc(C(=N)N)cc2)cc1 [Pentamidine] | 2.4
N=C(N)c1ccc(OCCCOc2ccc(C(=N)N)cc2)cc1 [Propamidine] | 1.2
N=C(N)c1ccc(OCCCCCCOc2ccc(C(=N)N)cc2I)cc1 [Monoiodohexamidine] | 4.4
N=C(N)c1ccc(OCCCCCCOc2ccc(C(=N)N)cc2)cc1 [Hexamidine] | 1.6

tested on: fibrinolytic activity; assay: not given; conditions: over a prolonged period of time inside the uterus; cited from earlier work

SMILES | inhibitor concentration required to be effective [mol/L]
NCCCCCC(=O)O [EACA, epsilon aminocaproic acid] | 0.001
NC[C@H]1CC[C@H](C(=O)O)CC1 [tranexamic acid] | 0.0001
